From patent US20260297095A1, “NOVEL PYRROLOTRIAZINE DERIVATIVE AND USE THEREOF” (Pelemed Co., Ltd., priority 2024, published 2026)

tested on: KYSE-70 esophageal cancer cell line; assay: Cell growth inhibition of KYSE-70 (Sulforhodamine B); format: cell-based; settings: Homo sapiens; KYSE-70, 72 hours; read-out: KYSE70 GI50
Procedure: The cell line according to the present invention was selected as KYSE-70, an esophageal cancer cell line in which YES1 is amplified. The evaluation of cell growth inhibition was performed as follows.
KYSE-70 was cultured in RPMI-1640 (Capricorn) supplemented with 10% FBS (Cellgro). The cells were seeded 24 hours prior to compound treatment, into three 96-well F-bottom clear plates (Greiner), with 7,500 cells per well in 180 μL of medium. The 10 mM compound was diluted 100-fold in medium to prepare a 100 μM compound, which was then placed into a 96-well plate and further 3-fold diluted in medium to prepare a compound plate with concentrations ranging from 0.046 μM to 100 μM. 20 μL of each compound from the drug plate was added to the cell-seeded plates to achieve final concentrations of 0.0046 μM to 10 μM. At the same time, 50 μL of 33% trichloroacetic acid was injected into one plate and the plate was fixed by incubating at 4° C. This was referred to as the Do plate. Viable cells were measured 72 hours after compound treatment by injecting 50 μL of 33% trichloroacetic acid and incubating at 4° C. for more than 1 hour to fix the cells. This was referred to as the D3 plate. After the Do plate and D3 plates were washed 5 times with sterile water, 100 μL of 0.04% Sulforhodamine B solution in 1% acetic acid was added and reacted for 1 hour to stain the cells. After staining, the plates were washed 4 times with 1% acetic acid solution and completely dried. Then, the Sulforhodamine B bound to cellular proteins was completely dissolved with 10 mM Tris base solution (pH 10.5). The absorbance was measured at a wavelength of 510 nm using a microplate reader (TECAN, sunrise microplate reader). The analysis was performed using GraphPad Prism. The average absorbance of the Do plate was set to 0%, and the average absorbance of the negative control of the D3 plate was set to 100%, from which a graph was drawn and the GI50 values were calculated. Each test was performed twice.

Compound | GI50
CC1(OC(=O)Nc2ccc(-c3cc(N4CCC(N)CC4)n4ncnc(N)c34)c3c2OCO3)CC1 [Example 70, 1-methylcyclopropyl (7-(4-amino-7-(4-aminopiperidin-1-yl)pyrrolo[2,1-f][1,2,4]triazin-5-yl)benzo[d][1,3]dioxol-4-yl)carbamate] | 100 to 1000 nM
COc1cc(-c2cc(N3CCC(C)(NC(C)=O)CC3)n3ncnc(N)c23)ccc1NC(=O)OC(C)(C)C [Example 96, tert-butyl (4-(4-amino-7-(4-acetamido-4-methylpiperidin-1-yl)pyrrolo[2,1-f][1,2,4]triazin-5-yl)-2-methoxyphenyl)carbamate] | > 10000 nM
COc1cc(-c2cc(N[C@@H]3CC[C@H](CN)C3)n3ncnc(N)c23)ccc1NC(=O)OC(C)(C)C [Example 111, tert-butyl (4-(4-amino-7-(((1R,3S)-3-(aminomethyl)cyclopentyl)amino)pyrrolo[2,1-f][1,2,4]triazin-5-yl)-2-methoxyphenyl)carbamate] | > 10000 nM
COc1cc(-c2c(I)c(N3CCC(N)CC3)n3ncnc(N)c23)ccc1NC(=O)OC(C)(C)C [Example 126, tert-butyl (4-(4-amino-7-(4-aminopiperidin-1-yl)-6-iodopyrrolo[2,1-f][1,2,4]triazin-5-yl)-2-methoxyphenyl)carbamate] | 100 to 1000 nM
COc1cc(-c2cc(N3CCC(C(C)N)CC3)n3ncnc(N)c23)ccc1NC(=O)OC(C)(C)C (stereo not drawn) [Example 81, tert-butyl (4-(4-amino-7-(4-(1-aminoethyl)piperidin-1-yl)pyrrolo[2,1-f][1,2,4]triazin-5-yl)-2-methoxyphenyl)carbamate] | 100 to 1000 nM
COc1cc(-c2c(C(F)(F)F)c(N3CCC(N)CC3)n3ncnc(N)c23)ccc1NC(=O)OC(C)(C)C [Example 125, tert-butyl (4-(4-amino-7-(4-aminopiperidin-1-yl)-6-(trifluoromethyl)pyrrolo[2,1-f][1,2,4]triazin-5-yl)-2-methoxyphenyl)carbamate] | 100 to 1000 nM
CNC1CCN(CCc2cc(-c3ccc(NC(=O)OC(C)(C)CF)c(OC)c3)c3c(N)ncnn23)CC1 [Example 67, 1-fluoro-2-methylpropan-2-yl (4-(4-amino-7-(2-(4-(methylamino)piperidin-1-yl)ethyl)pyrrolo[2,1-f][1,2,4]triazin-5-yl)-2-methoxyphenyl)carbamate] | 100 to 1000 nM
CNC(=O)C1CCN(c2cc(-c3ccc(NC(=O)OC(C)(C)C)c(OC)c3)c3c(N)ncnn23)CC1 [Example 95, tert-butyl (4-(4-amino-7-(4-(methylcarbamoyl)piperidin-1-yl)pyrrolo[2,1-f][1,2,4]triazin-5-yl)-2-methoxyphenyl)carbamate] | 100 to 1000 nM

Now from value to compound:

GI50 | Compound
≤ 100 nM | COc1cc(-c2c(C)c(N3CCC(N(C)C)CC3)n3ncnc(N)c23)ccc1NC(=O)OC(C)(C)C [Example 76, tert-butyl (4-(4-amino-7-(4-(dimethylamino)piperidin-1-yl)-6-methylpyrrolo[2,1-f][1,2,4]triazin-5-yl)-2-methoxyphenyl)carbamate]
≤ 100 nM | COc1cc(-c2cc(N3CCC(N(C)C)CC3)n3ccnc(N)c23)ccc1NC(=O)OC(C)(C)C [Example 134, tert-butyl (4-(1-amino-6-(4-(dimethylamino)piperidin-1-yl)pyrrolo[1,2-a]pyrazin-8-yl)-2-methoxyphenyl)carbamate]
100 to 1000 nM | CNCCC1CCN(c2c(C)c(-c3ccc(NC(=O)OC(C)(C)C)c(OC)c3)c3c(N)ncnn23)CC1 [Example 77, tert-butyl (4-(4-amino-6-methyl-7-(4-(2-(methylamino)ethyl)piperidin-1-yl)pyrrolo[2,1-f][1,2,4]triazin-5-yl)-2-methoxyphenyl)carbamate]
100 to 1000 nM | COc1cc(-c2cc(N3CCC(N)C4(CC4)C3)n3ncnc(N)c23)ccc1NC(=O)OC(C)(C)C (stereo not drawn) [Example 80, tert-butyl (4-(4-amino-7-(8-amino-5-azaspiro[2.5]octan-5-yl)pyrrolo[2,1-f][1,2,4]triazin-5-yl)-2-methoxyphenyl)carbamate]
≤ 100 nM | CC(C)(C)OC(=O)Nc1ccc(-c2cc(N3CCC(N)CC3)n3ncnc(N)c23)c2c1OCO2 [Example 73, tert-butyl (7-(4-amino-7-(4-aminopiperidin-1-yl)pyrrolo[2,1-f][1,2,4]triazin-5-yl)benzo[d][1,3]dioxol-4-yl)carbamate]
≤ 100 nM | COc1cc(-c2cc(N3CCC(N)CC3)n3ncnc(N)c23)ccc1NC(=O)OC1(C)CC1 [Example 71, 1-methylcyclopropyl (4-(4-amino-7-(4-aminopiperidin-1-yl)pyrrolo[2,1-f][1,2,4]triazin-5-yl)-2-methoxyphenyl)carbamate]
≤ 100 nM | CNC1CCN(c2c(C)c(-c3ccc(NC(=O)OC(C)(C)CF)c(OC)c3)c3c(N)ncnn23)CC1 [Example 61, 1-fluoro-2-methylpropan-2-yl (4-(4-amino-6-methyl-7-(4-(methylamino)piperidin-1-yl)pyrrolo[2,1-f][1,2,4]triazin-5-yl)-2-methoxyphenyl)carbamate]
≤ 100 nM | COc1cc(-c2cc(CCN3CCC(N(C)C)CC3)n3ncnc(N)c23)ccc1NC(=O)OC(C)(C)CF [Example 69, 1-fluoro-2-methylpropan-2-yl (4-(4-amino-7-(2-(4-(dimethylamino)piperidin-1-yl)ethyl)pyrrolo[2,1-f][1,2,4]triazin-5-yl)-2-methoxyphenyl)carbamate]
≤ 100 nM | CNCCC1CCN(c2cc(-c3ccc(NC(=O)OC(C)(C)CF)c(OC)c3)c3c(N)ncnn23)CC1 [Example 66, 1-fluoro-2-methylpropan-2-yl (4-(4-amino-7-(4-(2-(methylamino)ethyl)piperidin-1-yl)pyrrolo[2,1-f][1,2,4]triazin-5-yl)-2-methoxyphenyl)carbamate]

biological target: YES1 kinase (Homo sapiens, UniProt P07947); assay: YES1 kinase inhibition, ADP Glo assay (Promega); format: biochemical; settings: compound 10 nM; read-out: YES1 enzyme, % inhibition, 10 nM
Procedure: To evaluate the inhibitory activity against YES1 kinase of the compound according to the present invention, ADP Glo assay (Promega) was used, and the following method was performed with reference to the Promega kinase enzyme system protocol. To proceed with the experiment, buffers A-F and compound dilution plates were required.
To prepare A.4X reaction buffer, 800 μl of 5X reaction buffer and 200 μl of distilled water were used. To prepare B.4X kinase buffer, 996.6 μl of A.4X reaction buffer, 2 μl of 0.1M DTT, and 3.2 μl of 2.5M MnCl2 were added and mixed. To prepare C.1X kinase buffer (containing 5% DMSO) used for compound dilution, 250 μl of B.4X kinase buffer, 700 μl of distilled water, and 50 μl of DMSO were added, so that the final DMSO concentration became 5%. Then, 10 mM compounds were diluted 100-fold to prepare 100 μM solutions, and then D.5X inhibitor solution was prepared so that the compound concentration became 5 uM. Using a 96-well plate, 5 μM compounds were 3-fold diluted using C.1X kinase buffer (containing 5% DMSO) to prepare compound plates with concentrations ranging from 0.25 μM to 5 μM. The resulting plates were stored at room temperature. To prepare E. 2.5X ATP/substrate mixture, 50 μl of B.4X kinase buffer, 50 μl of […], and 100 μl of substrate were mixed. To prepare F YES1 kinase enzyme solution, 35 μl of B.4X kinase buffer, 0.4 μl of YES1 enzyme, and 104.6 μl of distilled water were used. Once the diluted compound plates, ATP/substrate mixture, and YES1 kinase solution were all prepared, 3 μL each was transferred from the diluted compound plate to a luciferase 96-well white plate (Since the total volume of the ATP/substrate and YES1 kinase solution that reacts with the compound is 15 μL, the compounds were diluted 5-fold, making the final compound concentration 0.05 μM-1 μM). Then, 6 μL of F. YES1 Kinase Enzyme Solution was transferred to each well, pipetted 10 times to mix, and incubated at room temperature in a shaker for 10 minutes. Next, 6 μL of E. 2.5X ATP/Substrate Mixture was transferred to each well, pipetted 10 times to mix, and centrifuged at 12,000 rpm for 5 minutes. The plate was then incubated in a shaker at room temperature for 40 minutes. After that, 15 μL of ADP-Glo Reagent, dissolved at room temperature, was added to each well, pipetted 10 times, and incubated in a shaker at room temperature for 40 minutes. Finally, 30 μL of Kinase Detection Reagent, dissolved at room temperature, was added, pipetted 10 times, incubated in a shaker at room temperature for 30 minutes. Luminescence was measured using a luminescence plate reader. Then, the background value was subtracted from all measured values, and the YES1 kinase activity at compound concentrations of 1 nM, 10 nM, and 100 nM was calculated. The measured values were calculated as percentages using the average value of the negative control. Graphs were drawn using GraphPad Prism, and the enzyme activity was calculated as a percentage of YES1 kinase inhibition at compound concentrations of 1 nM, 10 nM, and 100 nM. IC50 values were obtained using Microsoft Excel.

YES1 kinase, sequence (P07947 whole entry): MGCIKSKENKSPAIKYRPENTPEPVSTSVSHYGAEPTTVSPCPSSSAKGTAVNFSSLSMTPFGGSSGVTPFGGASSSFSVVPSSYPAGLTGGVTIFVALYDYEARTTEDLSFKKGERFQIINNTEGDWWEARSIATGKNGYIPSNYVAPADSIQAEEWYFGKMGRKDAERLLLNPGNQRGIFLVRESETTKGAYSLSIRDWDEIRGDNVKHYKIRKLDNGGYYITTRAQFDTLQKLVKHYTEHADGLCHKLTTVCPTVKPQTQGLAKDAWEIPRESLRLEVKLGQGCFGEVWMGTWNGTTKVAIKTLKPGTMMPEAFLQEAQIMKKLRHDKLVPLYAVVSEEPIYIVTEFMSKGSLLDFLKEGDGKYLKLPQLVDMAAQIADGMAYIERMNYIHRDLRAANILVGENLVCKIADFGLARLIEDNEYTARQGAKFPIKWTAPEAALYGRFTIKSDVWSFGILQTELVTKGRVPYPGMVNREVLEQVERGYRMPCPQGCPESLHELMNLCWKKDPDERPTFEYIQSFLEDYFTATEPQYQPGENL

inhibition at 0.01 µM | Compound
37% | COc1cc(-c2cc(N3C[C@H]4CN(C)C[C@H]4C3)n3ncnc(N)c23)ccc1NC(=O)OC(C)(C)C [Example 34, tert-butyl (4-(4-amino-7-((3aR,6aS)-5-methylhexahydropyrrolo[3,4-c]pyrrol-2(1H)-yl)pyrrolo[2,1-f][1,2,4]triazin-5-yl)-2-methoxyphenyl)carbamate]
51% | COc1cc(-c2cc(N3CC[C@@H](N(C)C)[C@H](F)C3)n3ncnc(N)c23)ccc1NC(=O)OC(C)(C)C [Example 32, tert-butyl (4-(4-amino-7-((3R,4R)-4-(dimethylamino)-3-fluoropiperidin-1-yl)pyrrolo[2,1-f][1,2,4]triazin-5-yl)-2-methoxyphenyl)carbamate]

same assay, conditions: compound 100 nM; read-out: YES1 enzyme, % inhibition, 100 nM

inhibition at 0.1 µM | Compound
74% | COc1cc(-c2cc(N3C[C@H]4CN(C)C[C@H]4C3)n3ncnc(N)c23)ccc1NC(=O)OC(C)(C)C [Example 34, tert-butyl (4-(4-amino-7-((3aR,6aS)-5-methylhexahydropyrrolo[3,4-c]pyrrol-2(1H)-yl)pyrrolo[2,1-f][1,2,4]triazin-5-yl)-2-methoxyphenyl)carbamate]
82% | COc1cc(-c2cc(N3CC[C@@H](N(C)C)[C@H](F)C3)n3ncnc(N)c23)ccc1NC(=O)OC(C)(C)C [Example 32, tert-butyl (4-(4-amino-7-((3R,4R)-4-(dimethylamino)-3-fluoropiperidin-1-yl)pyrrolo[2,1-f][1,2,4]triazin-5-yl)-2-methoxyphenyl)carbamate]
